Square brackets hold non-standard residues; d marks the D form. Ends that are not written are not given here. Peptide text beside a SMILES is read from it.
Columns and labels:
[1] = target: T1, Proteinase K (Parengyodontium album, UniProt P06873); conditions: unconjugated KYFIL peptides; cited from earlier work
T1 construct: purchased Sigma-Aldrich
Protocol: Given the potential of peptide stereocomplexes to prolong hydrogel lifetime due to enhanced proteolytic stability, we were interested to learn whether the KYFIL stereocomplex cross-links boost the proteolytic stability of polymeric hydrogels. In our prior study with unconjugated KYFIL stereocomplexes, we incubated l-, 1 : 1 L : D-, and D-KYFIL in Proteinase K, an enzyme that is predicted to cleave L-KYFIL between the Y–F, F–I, and I–L residues.[57] We found more than 90% intact peptide in the 1 : 1 L : D-peptide mixtures after incubation with Proteinase K for 72 h, while only ∼35% L-KYFIL rema ...

[2] = Solubility / visual appearance in water, PBS or urea-PBS; format: physicochemical
From the text: To attach the peptides to PEG, we selected a thiol-maleimide reaction[43,44] due to its efficiency under mild conditions (Fig. 1a). Therefore, we prepared cysteine-terminated L- and […], or […] and […]8 ^†), for conjugation to maleimide-functionalized 4-arm PEG. […] We note that […] peptides are only partially soluble and form a white dispersion in the 7 M urea 1× PBS solution (Fig. S10 ^†). […] In 1× PBS, while 1.5% (w/v) unconjugated KYFIL forms β-sheets, the conjugates are soluble and we see no evidence of β-sheet formation by infrared (IR) spectroscopy even at 15% ([…] ^†), corresponding to a peptide equivalent concentration of ∼2% (w/v), which exceeds the peptide concentrations in the 1.5% (w/v) formulations of peptide alone. As noted in our previous report on unconjugated KYFIL,[20] we used IR here for secondary structure determination rather than CD because the high peptide concentrations and the presence of salt that promote β-sheet formation also complicate CD spectra acquisition by saturating the detector. […] Moreover, the absorbances are more prominent at higher concentrations (Fig. 2b), signifying the relationship between secondary structure and hydrogel formation.

T1 sequence (P06873 106-384): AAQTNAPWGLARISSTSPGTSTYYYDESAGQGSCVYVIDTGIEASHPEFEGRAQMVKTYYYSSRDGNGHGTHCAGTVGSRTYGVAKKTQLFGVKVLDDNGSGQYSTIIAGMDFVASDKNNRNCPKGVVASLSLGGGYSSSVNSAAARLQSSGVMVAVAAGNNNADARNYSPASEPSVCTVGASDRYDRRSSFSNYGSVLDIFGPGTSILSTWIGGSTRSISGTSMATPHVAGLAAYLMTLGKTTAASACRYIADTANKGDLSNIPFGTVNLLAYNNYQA

Row | Compound | intact peptide after incubation with Proteinase K for 72 h [1] | solubility in water (in words) [2]
1 | L-KYFIL [unconjugated L-peptide KYFIL of the authors' prior study] | ~35% | 
2 | KYFILC-NH2 [L-KYFILC] |  | soluble
3 | CC[C@@H](C)[C@@H](NC(=O)[C@@H](Cc1ccccc1)NC(=O)[C@@H](Cc1ccc(O)cc1)NC(=O)[C@H](N)CCCCN)C(=O)N[C@H](CC(C)C)C(=O)N[C@H](CS)C(N)=O [D-KYFILC] (H-[dK][dY][dF][dI][dL][dC]-NH2) |  | soluble

Reference: article PMC12129089, “Peptide stereocomplex cross-links for polymer hydrogels” (Chemical Science, 2025)
